Measured values reported in patent publication US10947242B2, “[1,2,4]triazolo[1,5and#8208;A]pyrimidine compounds as PDE2 inhibitors” (Janssen Pharmaceutica NV, priority 2016, dated 2021).
Like-named read-outs stand apart in the source and are kept apart here.

Assays:
Type in all cases: biochemical
[1] = molecular target: T1, Human recombinant PDE10A (hPDE10A) (Homo sapiens, UniProt Q9Y233); assay: In vitro assay PDE10A, human clone (SPA, 3H-cAMP hydrolysis)
T1 construct: His tag (inferred from metal chelate purification); made in house; host or cells: Sf9 insect cells (baculovirus)
Method in brief: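 Human recombinant PDE10A was expressed in Sf9 cells via baculovirus and incubated with compound in 50 mM Tris pH 7.8, 8.3 mM MgCl2, 1.7 mM EGTA. Substrate was 60 nM cAMP plus 0.008 μCi 3H-cAMP for 60 min at room temperature, read by SPA scintillation counting. Controls used 1% DMSO, and blanks omitted enzyme.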

[2] = molecular target: T2, Human recombinant PDE2A (hPDE2A) (Homo sapiens, UniProt O00408); assay: In vitro assay PDE2A (SPA, 3H-cGMP hydrolysis); details: for Emax: read-out: hPDE2A Emax
T2 construct: His tag (inferred from metal chelate purification); made in house; host or cells: Sf9 insect cells (baculovirus)

[3] = molecular target: T3, Human recombinant PDE3A (hPDE3A) (Homo sapiens, UniProt Q14432); assay: In vitro assay PDE3A (SPA, 3H-cAMP hydrolysis); details: for IC50: hPDE3B pIC50, read-out: pIC50 (converted); for Emax: read-out: hPDE3B Emax, read-out: Emax;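 on all read-outs here: the method names PDE3A and the table heading PDE3B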
T3 construct: purchased Scottish Biomedical; host or cells: Sf9 insect cells
Method in brief: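 Human PDE3A, cloned from brain, as partially purified Sf9 lysate. Substrate 0.4 μM cAMP plus [3H]-cAMP (2.4 μCi/ml final) in 50 mM Tris pH 7.8, 8.3 mM MgCl2, 1.7 mM EGTA, 60 min at room temperature, 1% DMSO final. Hydrolysis read by SPA scintillation counting against no-enzyme blanks and DMSO controls.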

[4] = human clone (h), default, read-out: hPDE10A2 Emax
[5] = human clone (h), default, read-out: hPDE10A2 pIC50 (converted)
[6] = human clone by default (no (r) mark), read-out: hPDE10A2 or rPDE10A2 Emax
[7] = human clone by default (no (r) mark), read-out: hPDE10A2 or rPDE10A2 pIC50 (converted)
[8] = human recombinant PDE2A, 10 μM cGMP substrate, read-out: hPDE2A pIC50 (converted)
[9] = read-out: hPDE2A pIC50 (converted)

T2 sequence (O00408 whole entry): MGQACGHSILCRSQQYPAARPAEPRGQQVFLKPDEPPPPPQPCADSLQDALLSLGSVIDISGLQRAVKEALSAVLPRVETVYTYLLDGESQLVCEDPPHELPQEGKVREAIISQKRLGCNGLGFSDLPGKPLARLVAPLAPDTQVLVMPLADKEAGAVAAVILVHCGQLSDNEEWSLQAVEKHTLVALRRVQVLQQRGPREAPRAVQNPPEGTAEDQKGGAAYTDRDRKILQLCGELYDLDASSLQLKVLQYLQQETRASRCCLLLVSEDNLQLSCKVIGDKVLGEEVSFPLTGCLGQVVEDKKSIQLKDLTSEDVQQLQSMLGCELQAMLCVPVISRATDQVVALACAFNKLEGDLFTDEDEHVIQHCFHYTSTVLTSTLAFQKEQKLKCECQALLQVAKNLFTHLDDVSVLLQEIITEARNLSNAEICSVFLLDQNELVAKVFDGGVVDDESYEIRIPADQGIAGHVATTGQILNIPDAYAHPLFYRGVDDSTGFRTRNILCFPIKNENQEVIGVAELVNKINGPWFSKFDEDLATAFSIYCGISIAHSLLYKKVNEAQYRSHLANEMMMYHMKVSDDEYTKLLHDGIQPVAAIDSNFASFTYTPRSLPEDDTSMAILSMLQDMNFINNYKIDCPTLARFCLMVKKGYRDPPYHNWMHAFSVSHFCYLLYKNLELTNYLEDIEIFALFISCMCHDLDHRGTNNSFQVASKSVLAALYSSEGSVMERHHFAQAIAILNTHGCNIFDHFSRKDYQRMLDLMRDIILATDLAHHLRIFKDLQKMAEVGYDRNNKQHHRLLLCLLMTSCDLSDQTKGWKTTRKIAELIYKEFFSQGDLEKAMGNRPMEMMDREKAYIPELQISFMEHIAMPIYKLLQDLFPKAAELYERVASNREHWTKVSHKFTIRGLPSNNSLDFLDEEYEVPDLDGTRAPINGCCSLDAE
T3 sequence (Q14432 whole entry): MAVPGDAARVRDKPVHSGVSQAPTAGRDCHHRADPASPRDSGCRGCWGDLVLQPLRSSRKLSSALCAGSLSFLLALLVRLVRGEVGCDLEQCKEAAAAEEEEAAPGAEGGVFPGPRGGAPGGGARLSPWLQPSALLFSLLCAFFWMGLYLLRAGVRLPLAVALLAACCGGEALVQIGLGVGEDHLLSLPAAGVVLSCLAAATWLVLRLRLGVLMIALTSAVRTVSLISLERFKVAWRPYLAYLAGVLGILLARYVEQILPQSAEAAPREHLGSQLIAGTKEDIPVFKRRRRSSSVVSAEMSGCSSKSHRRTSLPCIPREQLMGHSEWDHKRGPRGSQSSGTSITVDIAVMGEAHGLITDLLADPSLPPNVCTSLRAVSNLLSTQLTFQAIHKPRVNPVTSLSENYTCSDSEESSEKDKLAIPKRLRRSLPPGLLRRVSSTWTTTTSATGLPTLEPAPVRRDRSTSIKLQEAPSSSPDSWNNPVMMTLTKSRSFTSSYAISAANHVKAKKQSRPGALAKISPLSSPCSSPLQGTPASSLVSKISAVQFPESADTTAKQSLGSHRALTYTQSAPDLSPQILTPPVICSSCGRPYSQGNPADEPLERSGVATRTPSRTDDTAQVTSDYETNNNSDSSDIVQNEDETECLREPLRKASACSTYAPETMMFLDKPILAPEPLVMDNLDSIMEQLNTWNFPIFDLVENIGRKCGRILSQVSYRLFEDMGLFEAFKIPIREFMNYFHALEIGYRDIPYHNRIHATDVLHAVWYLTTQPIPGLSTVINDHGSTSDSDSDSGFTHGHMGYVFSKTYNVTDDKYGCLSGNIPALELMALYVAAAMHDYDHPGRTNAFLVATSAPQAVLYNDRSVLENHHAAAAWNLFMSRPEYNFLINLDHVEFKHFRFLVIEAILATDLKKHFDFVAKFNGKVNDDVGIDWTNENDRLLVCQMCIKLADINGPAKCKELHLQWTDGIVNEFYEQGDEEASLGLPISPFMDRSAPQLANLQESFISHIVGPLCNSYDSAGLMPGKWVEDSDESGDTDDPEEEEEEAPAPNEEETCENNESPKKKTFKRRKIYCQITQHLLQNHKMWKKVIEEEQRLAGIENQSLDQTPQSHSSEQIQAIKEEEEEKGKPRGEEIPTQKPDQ
T1 sequence (Q9Y233 267-1055): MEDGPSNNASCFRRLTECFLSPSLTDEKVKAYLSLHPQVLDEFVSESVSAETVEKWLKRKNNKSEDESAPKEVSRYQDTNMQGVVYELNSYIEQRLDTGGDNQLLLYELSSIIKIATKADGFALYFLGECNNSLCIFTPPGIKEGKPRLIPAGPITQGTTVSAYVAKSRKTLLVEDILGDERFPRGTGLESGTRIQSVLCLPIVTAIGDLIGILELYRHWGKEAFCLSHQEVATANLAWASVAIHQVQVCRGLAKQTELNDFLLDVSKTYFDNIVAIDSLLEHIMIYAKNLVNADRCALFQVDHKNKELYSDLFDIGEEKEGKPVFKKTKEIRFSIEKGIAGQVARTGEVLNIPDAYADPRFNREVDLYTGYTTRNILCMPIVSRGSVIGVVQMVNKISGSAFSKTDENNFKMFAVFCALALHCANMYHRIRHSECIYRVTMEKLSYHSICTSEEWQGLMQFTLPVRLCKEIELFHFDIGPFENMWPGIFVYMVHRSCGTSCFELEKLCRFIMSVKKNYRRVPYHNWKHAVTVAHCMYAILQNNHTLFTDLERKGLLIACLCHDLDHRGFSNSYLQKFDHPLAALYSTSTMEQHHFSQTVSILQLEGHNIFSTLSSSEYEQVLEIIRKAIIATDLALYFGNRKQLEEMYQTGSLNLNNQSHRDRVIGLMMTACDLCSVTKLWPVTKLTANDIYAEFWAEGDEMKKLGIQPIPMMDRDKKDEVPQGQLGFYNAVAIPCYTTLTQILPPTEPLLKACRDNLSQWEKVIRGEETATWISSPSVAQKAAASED

Compound	Emax [1, 4]	IC50 [1, 5]	Emax [1, 6]	IC50 [1, 7]	IC50 [2, 8]	Emax ([2]; human recombinant PDE2A)	Emax [2]	IC50 [2, 9]	IC50 [3]	Emax [3]	IC50 ([2]; hPDE2A pIC50)	IC50 ([2]; hPDE2A pIC50, human recombinant PDE2A, 10 μM cGMP substrate)
Cc1cc([C@H]2CN(C(=O)c3ccc4nccn4c3)CC[C@@H]2C)n2ncnc2n1 [Compound 216]	67%	4470 nM	67%	4470 nM	437 nM	98%	98%	437 nM	> 10000 nM	26%	–	–
Cc1oncc1C(=O)N1CC[C@@H](C)[C@H](c2cc(C(F)F)nc3ncnn23)C1 [Compound 260]	74%	2950 nM	74%	2950 nM	–	–	97%	138 nM	> 10000 nM	23%	–	–
Cc1cnoc1C(=O)N1CC[C@@H](C)[C@H](c2cc(C(F)F)nc3ncnn23)C1 [Compound 160]	88%	1020 nM	–	–	72.4 nM	99%	99%	72.4 nM	> 10000 nM	34%	–	–
C[C@@H]1CCN(C(=O)c2ccc(N)nc2)C[C@H]1c1cc(C(F)F)nc2ncnn12 [Compound 181]	94%	309 nM	–	–	4.57 nM	98%	98%	4.57 nM	> 10000 nM	52%	–	–
C[C@@H]1CCN(C(=O)c2cccc(N)n2)C[C@H]1c1cc(C(F)F)nc2ncnn12 [Compound 162]	72%	4270 nM	–	–	74.1 nM	97%	97%	74.1 nM	> 10000 nM	26%	–	–
C[C@@H]1CCN(C(=O)c2cnc(Br)s2)C[C@H]1c1cc(C(F)F)nc2ncnn12 [Compound 182]	95%	417 nM	–	–	25.1 nM	100%	100%	25.1 nM	> 10000 nM	44%	–	–
Cc1cc(C(=O)N2[C@H]3CC[C@H](c4cc(C(F)F)nc5ncnn45)[C@@H]2CC3)cc(F)c1F [Compound 344]	–	–	80%	2570 nM	–	–	99%	29.5 nM	7240 nM	61%	–	–
Cn1ccc2cc(C(=O)N3[C@H]4CC[C@H](c5cc(C(F)F)nc6ncnn56)[C@@H]3CC4)ncc21 [Compound 382]	–	–	75%	3980 nM	–	–	99%	10.2 nM	> 10000 nM	37%	–	–
C[C@@H]1CCN(C(=O)c2ccncc2N)C[C@H]1c1cc(C(F)F)nc2ncnn12 [Compound 142]	79%	2570 nM	–	–	30.2 nM	100%	100%	30.2 nM	> 10000 nM	35%	–	–
Cc1nc2cccc(C(=O)N3[C@H]4CC[C@H](c5cc(C(F)F)nc6ncnn56)[C@@H]3CC4)c2o1 [Compound 305]	–	–	57%	7080 nM	–	–	100%	87.1 nM	> 10000 nM	7%	–	–
Cn1ncc2cc(C(=O)N3[C@H]4CC[C@H](c5cc(C(F)F)nc6ncnn56)[C@@H]3CC4)ccc21 [Compound 380]	–	–	96%	363 nM	–	–	101%	5.5 nM	3980 nM	72%	–	–
COc1ccc(C(=O)N2CC[C@@H](C)[C@H](c3cc(C(F)F)nc4ncnn34)C2)cc1C#N [Compound 265]	98%	37.2 nM	98%	37.2 nM	–	–	102%	2.4 nM	6310 nM	55%	–	–
Cc1cc([C@@H]2CN(C(=O)c3oc4ccccc4c3C)CC[C@H]2C)n2ncnc2n1 [Compound 7]	101%	17 nM	–	–	0.794 nM	100%	100%	0.794 nM	75.9 nM	100%	–	–
Cc1ccc(F)c(C(=O)N2CC[C@@H](C)[C@@H](c3cc(C(F)F)nc4ncnn34)C2)n1 [Compound 222]	59%	6760 nM	59%	6760 nM	282 nM	98%	98%	282 nM	> 10000 nM	13%	–	–
Cc1ncoc1C(=O)N1CC[C@@H](C)[C@H](c2cc(C(F)F)nc3ncnn23)C1 [Compound 156]	81%	2000 nM	–	–	58.9 nM	100%	100%	58.9 nM	> 10000 nM	19%	–	–
Cc1ccc(C(=O)N2CC[C@@H](C)[C@H](c3cc(C(F)F)nc4ncnn34)C2)c(C)n1 [Compound 143]	77%	2400 nM	–	–	33.1 nM	97%	97%	33.1 nM	7940 nM	58%	–	–
Cc1cc([C@@H]2CN(C(=O)c3cc(C)sc3C)CC[C@H]2C)n2ncnc2n1 [Compound 16]	98%	63.1 nM	–	–	6.17 nM	100%	100%	6.17 nM	1660 nM	88%	–	–
C[C@@H]1CCN(C(=O)c2cccc(C(F)(F)F)c2F)C[C@H]1c1cc(C(F)F)nc2ncnn12 [Compound 148]	89%	912 nM	–	–	38.9 nM	101%	101%	38.9 nM	5620 nM	67%	–	–
C[C@@H]1CCN(C(=O)c2ccc(F)cn2)C[C@H]1c1cc(C(F)F)nc2ncnn12 [Compound 251]	53%	8710 nM	53%	8710 nM	–	–	98%	282 nM	> 10000 nM	17%	–	–
O=C(c1ccc(F)c(F)c1)N1[C@H]2CC[C@H](c3cc(C(F)F)nc4ncnn34)[C@@H]1CC2 [Compound 337]	–	–	71%	4570 nM	–	–	99%	166 nM	> 10000 nM	43%	–	–
C[C@@H]1CCN(C(=O)c2ccc3cnccc3c2)C[C@H]1c1cc(C(F)F)nc2ncnn12 [Compound 326]	–	–	99%	60.3 nM	–	–	100%	2.14 nM	257 nM	97%	–	–
Cc1cc([C@@H]2CN(C(=O)c3ccc4occ(C)c4c3)CC[C@H]2C)n2ncnc2n1 [Compound 5]	100%	8.91 nM	–	–	–	–	100%	–	589 nM	97%	0.955 nM	0.955 nM
C[C@@H]1CCN(C(=O)c2ccc(C(F)(F)F)nc2)C[C@H]1c1cc(C(F)F)nc2ncnn12 [Compound 167]	81%	2000 nM	–	–	97.7 nM	97%	97%	97.7 nM	5370 nM	64%	–	–
C[C@@H]1CCN(C(=O)c2ccc(C(F)(F)F)nc2Cl)C[C@H]1c1cc(C(F)F)nc2ncnn12 [Compound 242]	56%	8130 nM	56%	8130 nM	135 nM	97%	97%	135 nM	6170 nM	67%	–	–
O=C(c1ccc(C(F)(F)F)c(F)c1)N1[C@H]2CC[C@H](c3cc(C(F)F)nc4ncnn34)[C@@H]1CC2 [Compound 338]	–	–	70%	3090 nM	–	–	99%	91.2 nM	5500 nM	62%	–	–
Cc1nc(C(=O)N2CC[C@@H](C)[C@H](c3cc(C(F)F)nc4ncnn34)C2)c(C(F)(F)F)o1 [Compound 161]	74%	3090 nM	–	–	74.1 nM	98%	98%	74.1 nM	> 10000 nM	11%	–	–
Cc1c(C(=O)N2CC[C@@H](C)[C@H](c3cc(C(F)F)nc4ncnn34)C2)ccc2c1OCO2 [Compound 145]	93%	646 nM	–	–	36.3 nM	99%	99%	36.3 nM	2040 nM	86%	–	–
Cc1nc(C2CC2)cc(C(=O)N2CC[C@@H](C)[C@H](c3cc(C(F)F)nc4ncnn34)C2)c1F [Compound 279]	–	–	96%	316 nM	–	–	99%	2.24 nM	2820 nM	86%	–	–
C[C@@H]1CCN(C(=O)c2cnc(N(C)C)nc2)C[C@H]1c1cc(C(F)F)nc2ncnn12 [Compound 174]	88%	575 nM	–	–	5.25 nM	99%	99%	5.25 nM	1320 nM	85%	–	–
